Patent US8791273B2, “4R,5S-enantiomer of 2-(5-methyl-2-oxo-4-phenyl-pyrrolidin-1-yl)-acetamide with nootropic activity” (JSC Grindeks, priority 2009, dated 2014)
Marks after values point to notes of the source that are not given here.

Key:
ICR male mice = experiment: Passive avoidance test (learning and memory); format: in vivo; details: for Latent time (retention latency to cross into the dark compartment): intraperitoneally 46 μmol/kg 60 min before the training trial, retention test 24 hours later, cut-off 300 s, mean±S.E.M, n≧10
Description: Passive avoidance test was performed in a shuttle-box apparatus (Ugo Basile, Italy) with two communicating compartments of equal size (20×10×16 cm) and a stainless steel grid floor (bars spaced 0.7 cm apart). The right-hand compartment (shock compartment) was painted black to obtain a dark chamber. The left-hand compartment was painted white and illuminated by a bulb (100 W) installed on the top of plexiglass cover. These compartments were separated by a guillotine door (5×4 cm). On day 1 (training trial), mice were placed in the illuminated compartment and the door between the two compartments was opened 60 s later. When mice entered the dark compartment with all four feet, the door automatically closed and an inescapable electrical foot shock (0.1 mA; 3 s) was delivered through the grid floor. Latency to cross into the dark compartment (training latency) was automatically measured. The retention test was performed 24 hours later (day 2). Mice were placed into the light (safe) compartment, with access to the dark one (within 10 s) for a period of 300 s (cut-off time). The latency to cross into the dark compartment with all four feet was automatically measured (retention latency).
Effects of 2-(4R-phenyl-2-oxopyrrolidin-1-yl)acetamide), racemic 2-(5-methyl-2-oxo-4-phenyl-pyrrolidin-1-yl)-acetamide and 2-(5S-methyl-2-oxo-4R-phenyl-pyrrolidin-1-yl)-acetamide on retention of passive avoidance response (memory) in ICR male mice.
The compounds were administered intraperitoneally at the dose of 46 μmol/kg 60 min before the training trial (day 1). The saline control group was run concurrently with the drug-treated groups. The statistical analysis was performed by Student's t-test. Data represent mean±S.E.M *p<0.05, ^#p<0.05, ^$p<0.05 versus saline control group, 2-(4R-phenyl-2-oxopyrrolidin-1-yl)acetamide-treated group and racemic2-(5-methyl-2-oxo-4-phenyl-pyrrolidin-1-yl)-acetamide-treated group, respectively; n≧10

SMILES	effect on memory in the passive avoidance task (ICR male mice; dose of 46 μmol/kg, Student's t-test)	Latent time (retention latency to cross into the dark compartment) (ICR male mice)	melting point [°C]
C[C@H]1[C@@H](c2ccccc2)CC(=O)N1CC(N)=O [2-(5S-methyl-2-oxo-4R-phenyl-pyrrolidin-1-yl)-acetamide]	statistically significant effect on memory	170.6 ± 41.9* ^#$ s	169 to 171
CC1C(c2ccccc2)CC(=O)N1CC(N)=O (racemic) [2-(5-methyl-2-oxo-4-phenyl-pyrrolidin-1-yl)-acetamide racemic, 2-(5-methyl-2-oxo-4-phenyl-pyrrolidin-1-yl)-acetamide]	–	74.2 ± 19.9 s	–
NC(=O)CN1C[C@@H](c2ccccc2)CC1=O [2-(4R-phenyl-2-oxopyrrolidin-1-yl)acetamide, reference compound]	–	94.9 ± 27.6 s	–
